{
  "source": "patent US20110021505A1",
  "about": "“Use of sulfonyl-substituted 2-sulfonylaminobenzoic acid N-phenylamides in the treatment of pain” (SANOFI-AVENTIS DEUTSCHLAND GMBH, priority 2007, published 2011)",
  "tested_on": "thermal hyperalgesia of the hind paws induced by injection of carrageenan",
  "experiment": "Anti-hyperalgesic effect in the carrageenan model of inflammatory triggered thermal hyperalgesia in mice after oral administration",
  "assay_type": "in vivo, male C57B6 mice",
  "set-up": "key to Statistical evaluation vs. control (AUC1 h-6 h of PWL): ns: not significant; ***: significant, p < 0.0001 (ANOVA & Dunnett)",
  "details": "for Mean PWL (paw withdrawal latency) ± SEM: N=6 paws; for Statistical evaluation vs. control (AUC1 h-6 h of PWL): 1-way ANOVA & Dunnett; for AUC1 h-6 h of PWL (mean ± SEM): 1 h to 6 h after carrageenan, N=6",
  "method": "In this in vivo model the anti-hyperalgesic effect was determined in mice in which a thermal hyperalgesia of the hind paws had been induced by injection of carrageenan, by measuring the paw withdrawal latency (PWL), i.e. the time until the mouse withdrew its hind paw from a heated spot of the ground. These experiments and all other animal experiments were performed in accordance with animal protection law and guidelines for the use of experimental animals.\nThree test groups and one control group of animals were used each consisting of three male C57B6 mice. 1 h before injection of carrageenan, either the test compound or vehicle was administered to the animals orally by gavage. In the test groups, mice received 100 μl/10 g body weight of a suspension of the test compound in vehicle MC/T80 comprising 0.1 mg/ml, 0.3 mg/ml or 1 mg/ml (prepared as described in pharmaceutical example A) for attaining a dosage of 1 mg/kg body weight, 3 mg/kg body weight and 10 mg/kg body weight, respectively. In the control group, mice analogously received 100 μl/10 g body weight of vehicle MC/T80. For induction of hind paw inflammatory pain, then in all groups carrageenan (Sigma, Deisenhofen, Germany) at a concentration of 2% in 10 μl of saline was injected into the plantar aspect of both hind paws of the mice under slight general isofluran anesthesia. 1 h before injection of carrageenan, i.e. immediately before administration of the test compound or vehicle, and 1 h, 2 h, 4 h and 6 h after injection of carrageenan, thermal hyperalgesia was determined.\nThermal hyperalgesia was determined by measuring the paw withdrawal latency (PWL) by means of the automatic plantar test, first described for rats in K. Hargreaves et al., Pain 32 (1988), 77-88, and used in an adapted version fitted to mice described in H. Gühring et al., J. Neurosci. 20 (2000), 6714-6720. To restrict animal movement, 10.5×13.0×4.5 cm test cages were used. Instead of a glass floor, a metal grid bottom was used. PWL (in seconds) was determined on exposure of the paw to a defined thermal stimulus using a commercially available apparatus (Plantar Test, Ugo Basile Biological Research Apparatus, Comerio, Italy) fitted with a mini camera to ensure proper placement of the infrared heat below the hind paw of interest. The timer which measured the duration of reflected infrared light by the hind paw was started by the investigator and stopped once the animal shook the affected paw. A cut-off was set at 16 seconds to prevent tissue damage. For each hind paw and each time point, the mean of three to four PWL measurements was determined.\nThe given PWL values (in seconds) are the mean±SEM (standard error of the mean) of the PWL values obtained for each hind paw of each animal (N (number of paws)=6) of the indicated dosage group at the time points 1 h, 2 h, 4 h and 6 h after injection of carrageenan, as well as the baseline PWL values (BL) determined 1 h before administration of the test compound or vehicle and injection of carrageenan.\nFor the statistical analysis, PWL values were used in two ways, first with a 2-way ANOVA test based on the PWL values and second with a 1-way ANOVA test based on the area under the curve (AUC) values for the time period of 6 h after injection of carrageenan. A repeated measures 2-way ANOVA test (factor treatment and repeated measures factor time) was performed on PWL measurements. In case the interaction (treatment×time) was statistically significant, a Winer complementary analysis was done to investigate the effect of treatment for each time point. A Dunnett's test was used to study the potential differences between the control group and the test groups. […]",
  "data": [
    {"compound": "O=C(Nc1ccc(S(=O)(=O)N2CCOCC2)cc1)c1cc(Cl)ccc1NS(=O)(=O)c1ccc(Cl)s1.[Na]", "note": "[Example 94, 5-Chloro-2-(5-chloro-thiophene-2-sulfonylamino)-N-(4-(morpholine-4-sulfonyl)-phenyl)-benzamide sodium salt]", "values": [
      {"measurement": "Mean PWL (paw withdrawal latency) ± SEM", "setting": "1 mg/kg body weight group, BL baseline before administration and carrageenan", "result": "11.08 ± 0.40", "unit": "s"},
      {"measurement": "Statistical evaluation vs. control (AUC1 h-6 h of PWL)", "setting": "1 mg/kg body weight oral", "result": "ns"},
      {"measurement": "Mean PWL (paw withdrawal latency) ± SEM", "setting": "1 mg/kg body weight oral, 1 h after carrageenan", "result": "4.08 ± 0.62", "unit": "s"},
      {"measurement": "AUC1 h-6 h of PWL (mean ± SEM)", "setting": "1 mg/kg body weight oral", "result": "19.57 ± 2.19"},
      {"measurement": "Mean PWL (paw withdrawal latency) ± SEM", "setting": "1 mg/kg body weight oral, 2 h after carrageenan", "result": "3.80 ± 0.28", "unit": "s"},
      {"measurement": "Mean PWL (paw withdrawal latency) ± SEM", "setting": "1 mg/kg body weight oral, 4 h after carrageenan", "result": "3.98 ± 0.79", "unit": "s"},
      {"measurement": "Mean PWL (paw withdrawal latency) ± SEM", "setting": "1 mg/kg body weight oral, 6 h after carrageenan", "result": "3.86 ± 0.48", "unit": "s"},
      {"measurement": "Anti-hyperalgesic effect on PWL vs. control (2-way ANOVA, Dunnett)", "setting": "3 mg/kg and 10 mg/kg body weight oral, from 1 h to 4 h after carrageenan injection", "result": "Statistically significant anti-hyperalgesic effects"},
      {"measurement": "Mean PWL (paw withdrawal latency) ± SEM", "setting": "3 mg/kg body weight group, BL baseline before administration and carrageenan", "result": "10.69 ± 0.27", "unit": "s"},
      {"measurement": "Statistical evaluation vs. control (AUC1 h-6 h of PWL)", "setting": "3 mg/kg body weight oral", "result": "*** (significant, p < 0.0001 (ANOVA & Dunnett))"},
      {"measurement": "Mean PWL (paw withdrawal latency) ± SEM", "setting": "3 mg/kg body weight oral, 1 h after carrageenan", "result": "8.42 ± 0.53", "unit": "s"},
      {"measurement": "AUC1 h-6 h of PWL (mean ± SEM)", "setting": "3 mg/kg body weight oral", "result": "44.87 ± 1.21"},
      {"measurement": "Mean PWL (paw withdrawal latency) ± SEM", "setting": "3 mg/kg body weight oral, 2 h after carrageenan", "result": "10.16 ± 0.33", "unit": "s"},
      {"measurement": "Mean PWL (paw withdrawal latency) ± SEM", "setting": "3 mg/kg body weight oral, 4 h after carrageenan", "result": "10.84 ± 0.63", "unit": "s"},
      {"measurement": "Mean PWL (paw withdrawal latency) ± SEM", "setting": "3 mg/kg body weight oral, 6 h after carrageenan", "result": "3.74 ± 0.47", "unit": "s"},
      {"measurement": "Mean PWL (paw withdrawal latency) ± SEM", "setting": "10 mg/kg body weight group, BL baseline before administration and carrageenan", "result": "10.97 ± 0.40", "unit": "s"},
      {"measurement": "Statistical evaluation vs. control (AUC1 h-6 h of PWL)", "setting": "10 mg/kg body weight oral", "result": "*** (significant, p < 0.0001 (ANOVA & Dunnett))"},
      {"measurement": "Mean PWL (paw withdrawal latency) ± SEM", "setting": "10 mg/kg body weight oral, 1 h after carrageenan", "result": "12.46 ± 0.91", "unit": "s"},
      {"measurement": "AUC1 h-6 h of PWL (mean ± SEM)", "setting": "10 mg/kg body weight oral", "result": "48.70 ± 2.06"},
      {"measurement": "Mean PWL (paw withdrawal latency) ± SEM", "setting": "10 mg/kg body weight oral, 2 h after carrageenan", "result": "11.24 ± 0.77", "unit": "s"},
      {"measurement": "Mean PWL (paw withdrawal latency) ± SEM", "setting": "10 mg/kg body weight oral, 4 h after carrageenan", "result": "11.11 ± 0.54", "unit": "s"},
      {"measurement": "Mean PWL (paw withdrawal latency) ± SEM", "setting": "10 mg/kg body weight oral, 6 h after carrageenan", "result": "3.40 ± 0.46", "unit": "s"}
    ]}
  ]
}
